Values joined by “and” are separate entries in the source; they are usually repeats but may differ in a detail not shown here. Identical values can stand only once. Toxic doses and inconclusive results are not listed.

For this experiment, the system named is L1210 leukemia ip in BDF1 mice, survival T/C. The experiment is described as follows: NCI In Vivo Anticancer Drug Screen. Data for tumor model L1210 Leukemia (intraperitoneal) in B6D2F1 (BDF1) mice. As to conditions: endpoint: mean survival time, higher = longer survival. Put shortly:
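Survival endpoint. Drug-treated group vs vehicle group, expressed as T divided by C. Tumor passaged by transplantation.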

The mark [1] stands for this setting: dose: 100.0 mg/kg/injection, schedule: Q01DX009 (ip), vehicle: Klucel (hydroxypropylcellulose) (HPC).
Setting [2] is: dose: 100.0 mg/kg/injection, schedule: Q04DX003 (ip), vehicle: saline.
[3] abbreviates: dose: 200.0 mg/kg/injection, schedule: Q01DX009 (ip), vehicle: Klucel (hydroxypropylcellulose) (HPC).
[4] abbreviates: dose: 200.0 mg/kg/injection, schedule: Q04DX003 (ip), vehicle: saline.
Setting [5] is: dose: 100.0 mg/kg/injection, schedule: Q04DX003 (ip), vehicle: Klucel (hydroxypropylcellulose) (HPC).
Where [6] appears, read: dose: 100.0 mg/kg/injection, schedule: Q04DX003 (ip), vehicle: saline with Tween-80.
[7] abbreviates: dose: 200.0 mg/kg/injection, schedule: Q04DX003 (ip), vehicle: Klucel (hydroxypropylcellulose) (HPC).
Where [8] appears, read: dose: 400.0 mg/kg/injection, schedule: Q04DX003 (ip), vehicle: Klucel (hydroxypropylcellulose) (HPC).
[9] abbreviates: dose: 100.0 mg/kg/injection, schedule: Q01DX009 (ip), vehicle: saline with Tween-80.
[10] abbreviates: dose: 200.0 mg/kg/injection, schedule: Q01DX009 (ip), vehicle: saline with Tween-80.
Where [11] appears, read: dose: 400.0 mg/kg/injection, schedule: Q01DX009 (ip), vehicle: Klucel (hydroxypropylcellulose) (HPC).
[12] abbreviates: dose: 100.0 mg/kg/injection, schedule: Q04DX002 (ip), vehicle: Klucel (hydroxypropylcellulose) (HPC).
[13] abbreviates: dose: 200.0 mg/kg/injection, schedule: Q04DX002 (ip), vehicle: Klucel (hydroxypropylcellulose) (HPC).
The mark [14] stands for this setting: dose: 400.0 mg/kg/injection, schedule: Q04DX002 (ip), vehicle: Klucel (hydroxypropylcellulose) (HPC).

On to `Cn1cnc(/C(N)=N\O)c1N`, for which the T/C is 102 % of control (dose: 25.0 mg/kg/injection, schedule: Q01DX005 (ip), vehicle: saline); 113 % of control (dose: 50.0 mg/kg/injection, schedule: Q01DX005 (ip), vehicle: saline); 107 % of control (dose: 100.0 mg/kg/injection, schedule: Q01DX005 (ip), vehicle: saline).

As to `CCCCC1CCC2=C(CC(O)(CCCC)CC3=C1C(=O)OC3=O)C(=O)OC2=O` (configuration not stated), the T/C runs as follows: (dose: 100.0 mg/kg/injection, schedule: Q04DX002 (ip), vehicle: saline with Tween-80) 106 % of control; (dose: 200.0 mg/kg/injection, schedule: Q04DX002 (ip), vehicle: saline with Tween-80) 95 % of control.

Turning to `CCOc1ccc2nc(N)sc2c1`, the T/C is 94 % of control (dose: 50.0 mg/kg/injection, schedule: Q01DX009 (ip), vehicle: Klucel (hydroxypropylcellulose) (HPC)); 110 % of control under setting [1]; 99 % of control under setting [2]; 111 % of control under setting [3]; 89 % of control under setting [4].

As for `COS(=O)(=O)c1ccc(Cl)c([N+](=O)[O-])c1`, the T/C (dose: 0.38 mg/kg/injection, schedule: Q01DX009 (ip), vehicle: saline) was 97 % of control; the T/C (dose: 0.75 mg/kg/injection, schedule: Q01DX009 (ip), vehicle: saline) is 102 % of control; the T/C (dose: 0.75 mg/kg/injection, schedule: Q04DX003 (ip), vehicle: saline with Tween-80) was 101 % of control; the T/C (dose: 1.5 mg/kg/injection, schedule: Q01DX009 (ip), vehicle: saline) is 97 % of control; the T/C (dose: 1.5 mg/kg/injection, schedule: Q04DX003 (ip), vehicle: saline with Tween-80) is 90 % of control.

Turning to `CCCCCCCCCCCCCC[N+](C)(C)Cc1cc(=O)c(O)co1`, the T/C was 97 % of control (dose: 12.5 mg/kg/injection, schedule: Q01DX015 (ip), vehicle: saline); 102 % of control (dose: 25.0 mg/kg/injection, schedule: Q01DX015 (ip), vehicle: saline); 97 % of control (dose: 25.0 mg/kg/injection, schedule: Q04DX003 (ip), vehicle: saline with Tween-80); 96 % of control (dose: 50.0 mg/kg/injection, schedule: Q01DX015 (ip), vehicle: saline); 101 % of control (dose: 50.0 mg/kg/injection, schedule: Q04DX003 (ip), vehicle: saline with Tween-80); 106 % of control (dose: 100.0 mg/kg/injection, schedule: Q01DX015 (ip), vehicle: saline). Moreover, the T/C under setting [5] was 87 % of control and the T/C under setting [6] is 101 % of control.

For `C=C(C)C1CC=C(/C=N/O)CC1` (configuration not stated), the T/C reads like this: (dose: 100.0 mg/kg/injection, schedule: Q01DX001 (ip), vehicle: saline) 104 % of control; (dose: 100.0 mg/kg/injection, schedule: Q01DX009 (ip), vehicle: saline sonified) 104 % of control; under setting [5], 96 % of control; (dose: 200.0 mg/kg/injection, schedule: Q01DX001 (ip), vehicle: saline) 101 % of control; (dose: 200.0 mg/kg/injection, schedule: Q01DX009 (ip), vehicle: saline sonified) 97 % of control; under setting [7], 98 % of control. Also, the T/C by setting is: (dose: 400.0 mg/kg/injection, schedule: Q01DX001 (ip), vehicle: saline) 95 % of control; (dose: 400.0 mg/kg/injection, schedule: Q01DX009 (ip), vehicle: saline sonified) 97 % of control; under setting [8], 98 % of control.

In the case of `CC1CCC=C2C(=O)C3OC(C)(C)C(C3O)C21C` (configuration not stated), the T/C under setting [9] is 96 % of control; the T/C under setting [6] was 97 % of control; the T/C under setting [10] is 91 % of control; the T/C (dose: 200.0 mg/kg/injection, schedule: Q04DX003 (ip), vehicle: saline with Tween-80) was 103 % of control; the T/C (dose: 400.0 mg/kg/injection, schedule: Q01DX009 (ip), vehicle: saline with Tween-80) was 93 % of control; the T/C (dose: 400.0 mg/kg/injection, schedule: Q04DX003 (ip), vehicle: saline with Tween-80) is 90 % of control.

Turning to `O=Cc1cccc(Oc2cccc(C=O)c2)c1`, the T/C reads like this: (dose: 100.0 mg/kg/injection, schedule: Q01DX001 (ip), vehicle: Klucel (hydroxypropylcellulose) (HPC)) 97 % of control; (dose: 200.0 mg/kg/injection, schedule: Q01DX001 (ip), vehicle: Klucel (hydroxypropylcellulose) (HPC)) 95 % of control; (dose: 400.0 mg/kg/injection, schedule: Q01DX001 (ip), vehicle: Klucel (hydroxypropylcellulose) (HPC)) 92 % of control.

For `O=NN(CCCl)C(=O)NC1[C@H](O)CCC[C@@H]1O` (some centres not stated), the T/C reads like this: (dose: 2.6 mg/kg/injection, schedule: Q01DX001 (ip), vehicle: saline) 228 % of control; (dose: 4.0 mg/kg/injection, schedule: Q01DX001 (ip), vehicle: saline) 385 % of control; (dose: 6.0 mg/kg/injection, schedule: Q01DX001 (ip), vehicle: saline) 455 % of control; (dose: 9.0 mg/kg/injection, schedule: Q01DX001 (ip), vehicle: saline) 505 % of control; (dose: 14.0 mg/kg/injection, schedule: Q01DX001 (ip), vehicle: saline) 340 % of control and 502 % of control; (dose: 22.0 mg/kg/injection, schedule: Q01DX001 (ip), vehicle: saline) 256 % of control and 309 % of control.

Take `O=C(Nc1cccc(F)c1)Nc1ccc(C(=O)O)c(O)c1`: the T/C is 91 % of control under setting [9] and 95 % of control under setting [10].

Take `Nc1nc(N)nc(SCCO)n1`: the T/C under setting [1] was 99 % of control, the T/C under setting [3] is 110 % of control and the T/C under setting [11] is 93 % of control.

For `Cc1ccccc1NC(=O)Oc1ccc2ccccc2c1`, the T/C under setting [12] is 106 % of control, the T/C under setting [13] is 103 % of control and the T/C under setting [14] is 106 % of control.

`COc1cc(C=Nc2ccc3c(c2)nc(C)n3C)ccc1N(CCCl)CCCl`: the T/C runs as follows: under setting [12], 165 % of control; under setting [13], 120 % of control; under setting [14], 89 % of control.

For `COc1cc(C)c(C(=O)c2ccccc2N)cc1OC`, the T/C (dose: 100.0 mg/kg/injection, schedule: Q01DX001 (ip), vehicle: carboxymethylcellulose (CMC)) was 105 % of control; the T/C (dose: 200.0 mg/kg/injection, schedule: Q01DX001 (ip), vehicle: carboxymethylcellulose (CMC)) was 118 % of control; the T/C (dose: 400.0 mg/kg/injection, schedule: Q01DX001 (ip), vehicle: carboxymethylcellulose (CMC)) is 96 % of control.

Consider `CC(=O)Nc1c(Cl)c(Cl)c2c(c1Cl)Cc1cc(Cl)ccc1-2`, for which the T/C reads like this: (dose: 100.0 mg/kg/injection, schedule: Q01DX009 (ip), vehicle: acetone) 90 % of control; under setting [2], 93 % of control; (dose: 200.0 mg/kg/injection, schedule: Q01DX009 (ip), vehicle: acetone) 93 % of control; under setting [4], 91 % of control; (dose: 400.0 mg/kg/injection, schedule: Q01DX009 (ip), vehicle: acetone) 95 % of control; (dose: 400.0 mg/kg/injection, schedule: Q04DX003 (ip), vehicle: saline) 91 % of control.

`CCN(CC)C(=O)c1ccccc1C(=O)O`: the T/C reads like this: under setting [1], 94 % of control; under setting [3], 92 % of control; under setting [11], 92 % of control.

Regarding `C(#CP(c1ccccc1)c1ccccc1)P(c1ccccc1)c1ccccc1`, the T/C (dose: 50.0 mg/kg/injection, schedule: Q04DX003 (ip), vehicle: Klucel (hydroxypropylcellulose) (HPC)) was 98 % of control; the T/C under setting [5] was 101 % of control; the T/C under setting [7] is 102 % of control.

`N=C(N)c1ccc(-c2cc(-c3ccc(C(=N)N)cc3)on2)cc1`: the T/C (dose: 6.25 mg/kg/injection, schedule: Q04DX003 (ip), vehicle: saline) is 100 % of control; the T/C (dose: 12.5 mg/kg/injection, schedule: Q04DX003 (ip), vehicle: saline) was 103 % of control; the T/C (dose: 25.0 mg/kg/injection, schedule: Q04DX003 (ip), vehicle: saline) is 108 % of control.

Take `Cc1cc(Cl)ccc1NC(=O)C(c1ccccc1)c1ccccc1`: the T/C runs as follows: under setting [1], 89 % of control; under setting [5], 101 % of control; under setting [3], 92 % of control; under setting [7], 95 % of control; under setting [11], 93 % of control; under setting [8], 88 % of control.

These data come from PubChem BioAssay AID248 (DTP/NCI, 2004).
